US20040235920A1, “Novel use of substituted aminomethyl chromans for the treatment of movement disorders and of adverse effects induced by drugs administered to treat extrapyramidal movement disorders” (priority 2001, published 2004)

Key:
[1] = test system: mutant dystonic hamster; test: Mutant dystonic hamster, scoring of dystonic attacks; assay type: in vivo; details: scoring system
Text: A typical animal model is the mutant dystonic hamster according to A. Richter and W. Löscher, Prog. Neurobiol. 1998; 54: 633-677. In this genetically dystonic hamsters, dystonic attacks are provoked by taking the animal from the home cage and placing it on a balance. The dystonic syndrome consists of a sequence of abnormal movements, and the severity of the single symptoms is rated by a scoring system.

[2] = test system: reserpinized rat or mouse; test: Reserpinized rat or mouse, akinesia in activity meters; assay type: in vivo; details: 24 h after reserpine
Procedure: A typical animal model is the reserpinized rat or mouse (e.g. M. S. Starr and B. S. Starr, J. Neural Transm.—Park. Dis. Dement. Sect., 1994; 7: 133-142; M. Gossel et al., J. Neural Transm.—Park. Dis. Dement. Sect., 1995; 10: 27-39; N. R. Hughes et al., Mov. Disord., 1998; 13: 228-233). Reserpine is a potent depleter of monoamines and produces nearly complete akinesia in both species. Prominent 24 h after application, the distance travelled and the time active is nearly zero as measured in conventional activity meters.

[3] = test system: Weaver mutant mouse; test: Weaver mutant mouse, locomotor activity; assay type: in vivo; details: activity cages
Text: Typical genetic models in mutant animals are the Campus Syndrome in the Pietrain pig according to A. Richter et al. (Exp. Neurology, 1995; 134: 205-213) or the Weaver mutant mouse according to J. R. Simon and B. Ghetti (Mol. Neurobiol., 1994; 9: 183-189). In the Campus Syndrome model, these mutant pigs show a high-frequency tremor when standing and during locomotion, but not while lying at rest. Assessment of tremor is made by accelerometric recording. In the Weaver mutant mouse, degenerative cerebellar atrophy is found in association with tremor, gait instability, and toppling over the sides after a few steps.

[4] = test system: 3-NP treated rats; test: Systemic 3-nitropropionic acid (3-NP) model in rats, nocturnal activity; assay type: in vivo, rat
Procedure: A typical animal model is the systemic 3-nitropropionic acid (3-NP) model in rats according to C. V. Borlongan et al., Brain Res., 1995; 697: 254-257. Rats are treated with injections of the selective striatal neurotoxin 3-NP i.p. every fourth day (C. V. Borlongan et al., Brain Res. Protocols, 1997; 1: 253-257). After two injections of 3-NP, rats display nocturnal hyperactivity reflecting symptoms of early Huntington's disease, whereas rats treated with four injections of 3-NP display nocturnal akinesia (hypoactivity) reflecting symptoms of late Huntington's disease. Nocturnal activity is automatically measured in conventional acitivity cages by infrared beams. (−)-(R)-2-{4-[[3,4-dihydro-2H-benzopyran-2-yl)-methyl]amino]butyl}-1,2-benzoisothiazol-3-(2H)-on-1,1-dioxide or a pharmaceutical acceptable salt thereof reduced both the nocturnal hyperactivity and akinesia.

O=C1c2ccccc2S(=O)(=O)N1CCCCNC[C@H]1CCc2ccccc2O1 [(−)-(R)-2-{4-[[3,4-dihydro-2H-benzopyran-2-yl)-methyl]amino]butyl}-1,2-benzoisothiazol-3-(2H)-on-1,1-dioxide]
severity of dystonic symptoms [1]: dose-dependently reduced
akinesia [2]: dose-dependently reduced akinesia
distance travelled and time active ([2]; activity meters): restored distance travelled and time active to about the level of normal animals
locomotor activity [3]: enhanced locomotor activity
nocturnal akinesia (hypoactivity) ([4]; after four injections of 3-NP (late Huntington's disease)): reduced
nocturnal hyperactivity ([4]; after two injections of 3-NP (early Huntington's disease)): reduced
